# Experiments:
# Format in all cases: cell-based
# [1] = test system: human whole blood; test: Hematology analysis (cell counts) in IBMIR blood loop system; details: WI-38 cells 1 × 10^5/2 ml, 1 hour, IBsolvMIR 0.2 mg/ml, heparin 0, 0.2 or 0.5 U/ml
# Procedure: (§1) Materials and Methods Dextran sulfate (IBsolvMIR®, Tikomed AB, Viken, Sweden, WO 2016/076780), heparin (Heparin LEO®, LEO Pharma, cat. No. 585679) and WI-38 cells (American Type Culture Collection (ATCC)) were administered to blood loops as shown in Table 1. Vehicle was an aqueous 0.9% NaCl solution. Each loop contained in total 2 ml of freshly taken human whole blood from three blood donors. Reagents were added to the loops according to Table 1 and the loops were set to rotate at 37° C. Blood samples were taken at the zero, 15 min, 1 hour and 4 hour time points.
# Blood samples were extracted from loops at the zero and 1 hour time points and platelets, red blood cells and white blood cells were automatically counted using a Sysmex XN-L 350 Hematology Analyzer.
# [2] = test system: human whole blood; test: Coagulation (blood clot size) and hemolysis in IBMIR blood loop system
# Procedure: as §1
# Clot scale: 1=Small clot observed (<2 mm), 2=Medium-sized clot observed (2-5 mm), 3=Large clot observed (>5 mm), * Clot removed from loop (not noted at 4 h when all blood was removed from loop), n.s.=no sample. Hemolysis: +=hemolysis observed in blood loop.
# [3] = test system: human whole blood; test: Cytokine analysis by electrochemiluminescence in blood loop system
# Procedure: as §1
# Blood was extracted from loops at the zero and 4 hour time points and cytokines were analyzed by electrochemiluminescence (ECL) in multiplex mode using MESO QuickPlex SQ 120 (Mesoscale Discovery).
# [4] = test system: human whole blood; test: Flow cytometry analysis of blood from blood loops; details: 1 hour
# Procedure: as §1
# Fresh blood was collected and immediately mixed with ethylenediaminetetraacetic acid (EDTA) (zero time point samples) or added to loops followed by sampling and mixing with EDTA at the 1 hour time point. Data was analyzed using flow cytometry.
# [5] = test system: human whole blood; test: Complement split products C3a and C5a by ELISA in blood loop system
# Procedure: as §1
# Complement analysis Complement split product C3a and C5a concentrations were measured by ELISA according to the manufacturer's instructions (RayBio® Human C3a and C5a ELISA Kit for serum, plasma, and cell culture supernatants by RayBiotech) at the zero, 15 min and 1 hour time points.
# [6] = WI-38-treated loops, three donors
# [7] = agent alone, WI-38 cells, listed as Dextran sulfate
# [8] = vs corresponding WI-38 treated without IBsolvMIR
# [9] = vehicle at 0.5 U/ml heparin, donors D2 and D3, 4 hour
# [10] = heparin 0.2 or 0.5 U/ml combined with IBsolvMIR 0.2 mg/ml, WI-38 cells
substance,measurement,setting,value
Dextran sulfate [IBsolvMIR®],WBC counts (WI-38 induced decrease),[1],completely rescued the WBC decrease
same,WBC counts (WI-38 induced decrease),[1]; listed as dextran sulfate,capable of restoring WBC counts
same,"Clotting, loops without WI-38 cells","[2]; IBsolvMIR alone loops, all donors, 15 min to 4 hours",No clotting was observed
same,Clotting at 15 minutes,[2]; [6],no clotting was observed
same,Clotting at one hour,[2]; [6],medium-sized clots were observed in two WI-38+IBsolvMIR® loops
same,IL-6 cytokine release,[3]; 4 hour time point,ambiguous
same,MCP-1 levels,"[3]; IBsolvMIR alone groups vs corresponding vehicle, 4 hour",higher than corresponding vehicle
same,MCP-1 levels,"[3]; WI-38 cells with IBsolvMIR vs corresponding WI-38 alone group, 4 hour",slightly increased levels of MCP-1
same,IL-8 release,"[3]; vehicle and WI-38 cell-induced, 4 hour",clear IBsolvMIR® dependent reduction
same,Activation of granulocytes (CD66b+),[4]; WI-38 cells,overall decreased activation profile
same,Activation of monocytes (CD14+),[4]; WI-38 cells,overall decreased activation profile
same,Aggregation of platelets (decrease in proportion of single platelets),[4]; WI-38 cells,entirely revoked
same,B cell count (WI-38 dependent decrease),[4]; WI-38 cells,entirely reversed up to vehicle level
same,Frequency of granulocytes,[4]; WI-38 cells,increased frequency
same,Frequency of monocytes,[4]; WI-38 cells,increased frequency
same,TF positive cell counts,[4]; WI-38 treated groups with vs without IBsolvMIR,about ten-fold
same,C5b-9 formation on platelets (proportion of C5b-9 positive platelets),"[4]; agent alone, WI-38 cells",partly reverted
same,Platelet binding to WI-38 cells (cell transplant),"[4]; agent alone, WI-38 cells",partly reverted
same,Proportion of platelets bound to granulocytes,"[4]; agent alone, WI-38 cells",capable of reducing
same,Proportion of platelets bound to monocytes,"[4]; agent alone, WI-38 cells",capable of reducing
same,C5b-9 formation on platelets (proportion of C5b-9 positive platelets),[4]; [7],capable of reducing
same,Platelet binding to WI-38 cells (cell transplant),[4]; [7],capable of reducing
same,Complement activation (C5b-9) on TF positive cells,[4]; vs WI-38 alone,lower
same,Frequency of apoptotic (annexin +) TF+ cells,[4]; [8],lower
same,Frequency of dead (annexin + and/or viability dye +) TF+ cells,[4]; [8],lower
same,C3a increase in WI-38 treated groups,[5]; 15 min time point,entirely blocked
same,C5a vs corresponding treatment without IBsolvMIR,[5]; 1 hour time point,lower in almost every donor in every group
same,C3a vs corresponding treatment without IBsolvMIR,"[5]; no heparin, 0.2 and 0.5 U/ml heparin, with and without WI-38 cells, 15 min and 1 hour",decreased C3a
heparin [reference compound],WBC counts (WI-38 induced decrease),[1],does not affect WBC counts
same,IL-6 response,[3]; [9],> 100 fold
same,TNF-α release,[3]; [9],dramatic elevated vehicle response
same,C5b-9 formation on platelets (proportion of C5b-9 positive platelets),"[4]; agent alone, WI-38 cells",did not have any effects
same,Platelet binding to WI-38 cells (cell transplant),"[4]; agent alone, WI-38 cells",did not have any effect at all
same,Proportion of platelets bound to granulocytes,"[4]; agent alone, WI-38 cells",did not have any effect at all
same,Proportion of platelets bound to monocytes,"[4]; agent alone, WI-38 cells",did not have any effect at all
same,C5b-9 formation on platelets (proportion of C5b-9 positive platelets),[4]; [10],clear concentration-dependent effect
same,Platelet binding to WI-38 cells (cell transplant),[4]; [10],potentiated the effects of IBsolvMIR®
same,C5b-9 formation on platelets (proportion of C5b-9 positive platelets),"[4]; heparin 0.2 or 0.5 U/ml combined with IBsolvMIR 0.2 mg/ml, WI-38 cells, listed as Heparin",potentiated the effects of IBsolvMIR®

# From patent publication US20240165150A1, “COMBINATION FOR TREATMENT OF THROMBOINFLAMMATION” (TX MEDIC AB, priority 2021, published 2024)
